Results reported in patent publication US9834550B2, “Pyridopyrimidinone compounds for modulating the catalytic activity of histone lysine demethylases (KDMs)” (Dong-A Socio Holdings Co., Ltd., priority 2014, dated 2017).

biological target: T1, Recombinant human JARID1B/KDM5B (Homo sapiens, UniProt Q9UGL1); test: LANCE Ultra TR-FRET demethylase assay with FLAG-tagged JARID1B; assay type: biochemical; conditions: 100 nM compound; 500 nM biotinylated H3K4me3 peptide substrate
T1 construct: purchased Active Motif 31432; host or cells: Sf9 insect cells
T1 sequence (Q9UGL1 whole entry): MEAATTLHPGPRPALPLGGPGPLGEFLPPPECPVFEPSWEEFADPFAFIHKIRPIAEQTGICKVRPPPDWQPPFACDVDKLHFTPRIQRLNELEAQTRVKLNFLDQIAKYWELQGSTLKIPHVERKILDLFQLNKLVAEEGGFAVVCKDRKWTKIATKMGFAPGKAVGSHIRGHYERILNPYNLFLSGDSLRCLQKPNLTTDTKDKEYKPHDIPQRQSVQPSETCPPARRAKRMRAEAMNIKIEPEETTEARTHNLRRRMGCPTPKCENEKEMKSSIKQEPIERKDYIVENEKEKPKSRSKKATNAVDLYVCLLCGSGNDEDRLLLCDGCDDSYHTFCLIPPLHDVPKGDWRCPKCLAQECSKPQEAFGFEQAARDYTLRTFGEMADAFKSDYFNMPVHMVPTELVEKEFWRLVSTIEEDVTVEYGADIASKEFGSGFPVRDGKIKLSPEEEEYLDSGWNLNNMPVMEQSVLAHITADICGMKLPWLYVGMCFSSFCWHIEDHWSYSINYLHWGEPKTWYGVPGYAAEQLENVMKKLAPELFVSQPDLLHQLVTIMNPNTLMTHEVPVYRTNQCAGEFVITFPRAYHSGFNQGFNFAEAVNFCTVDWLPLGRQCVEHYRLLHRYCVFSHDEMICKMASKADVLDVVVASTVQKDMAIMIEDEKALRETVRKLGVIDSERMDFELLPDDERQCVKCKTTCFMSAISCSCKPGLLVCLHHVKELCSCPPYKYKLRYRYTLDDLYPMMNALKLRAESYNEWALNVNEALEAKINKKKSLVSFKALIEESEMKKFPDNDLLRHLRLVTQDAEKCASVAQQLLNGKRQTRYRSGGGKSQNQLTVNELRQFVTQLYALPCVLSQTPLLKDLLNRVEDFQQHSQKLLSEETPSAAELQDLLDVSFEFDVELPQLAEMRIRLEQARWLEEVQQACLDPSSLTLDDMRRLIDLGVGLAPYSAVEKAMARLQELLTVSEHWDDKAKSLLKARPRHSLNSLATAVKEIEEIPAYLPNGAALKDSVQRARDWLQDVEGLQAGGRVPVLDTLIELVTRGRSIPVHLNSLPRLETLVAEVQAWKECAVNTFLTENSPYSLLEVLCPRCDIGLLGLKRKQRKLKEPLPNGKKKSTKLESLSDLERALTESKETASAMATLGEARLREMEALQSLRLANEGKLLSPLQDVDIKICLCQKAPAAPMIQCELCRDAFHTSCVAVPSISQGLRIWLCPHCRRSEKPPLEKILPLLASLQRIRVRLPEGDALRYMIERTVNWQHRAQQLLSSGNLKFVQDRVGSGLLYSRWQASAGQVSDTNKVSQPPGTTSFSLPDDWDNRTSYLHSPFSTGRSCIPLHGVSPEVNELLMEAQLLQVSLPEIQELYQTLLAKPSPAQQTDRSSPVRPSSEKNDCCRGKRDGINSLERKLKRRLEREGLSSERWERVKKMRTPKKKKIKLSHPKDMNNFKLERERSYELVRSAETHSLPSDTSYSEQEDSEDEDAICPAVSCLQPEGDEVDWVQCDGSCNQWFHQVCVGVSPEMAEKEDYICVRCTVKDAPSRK
Excerpt: FLAG-tagged JARID1B (also known as KDM5B) protein was screened against more than 170 compounds. For this compound screening, LANCE Ultra time-resolved fluorescence resonance energy transfer (TR-FRET) assay was employed using an europoium (Eu)-labeled antibody that can specifically recognize mono- or dimethylated peptides (H3K4me2/1) and ULight-streptavidin (ULight-SA), a small molecule fluorescent dye. When irradiated at 340 nm, the energy from the Eu donor is transferred to the ULight acceptor dye which, in turn, emits light primarily at 665 nm. The ratio between the intensity of primary emission at 665 nm and that of secondary emission at 590 nm was used to quantify the level of lysine methylation. As JARID1B removes more methyl moieties from tri-methylated substrate peptides (H3K4me3), the ratio increases until the enzyme reaction is terminated. In case, therefore, the compounds disrupt the enzymatic activity completely, the ratio becomes equal to a background value.
Recombinant human JARID1B/KDM5B (accession number NP_006609) of molecular weight 179.9 KDa was expressed in Sf9 insect cells and contains an N-terminal FLAG tag. The enzyme was obtained from Active Motif (Catalog No. 31432). The tri-methylated histone substrate peptide of purity greater than 95% was a synthetic peptide in which the first 21 amino acids correspond to the human histone H3 sequence with three extra amino acids and a biotin motif (GGK-biotin) linked to the C-terminus [sequence: ART-K (Me3)-QTARKSTGGKAPRKQLA-GGK-biotin-OH], (AnaSpec, Fremont, Calif. Catalog. No. ANA-1413). The reference inhibitory compound tranylcypromine (or trans-2-phenylcyclopropylamine hydrochloride, also known as, 2-PCPA) was purchased from Sigma (St. Louis, Mo. Cat. no. P8511). ULight-labeled streptavidin (ULight-SA, Catalog no. TRF0102), Eu-W1024-labeled anti-methyl-Histone H3 Lysine 4 (H3K4me1-2) Antibody (Catalog no. TRF0402), and LANCE detection buffer 10× (Catalog no. CR97-100) were obtained from PerkinElmer (Montreal, Quebec, Canada). The TR-FRET experiments were carried out in white, low-volume 384-wellplates purchased from PerkinElmer (ProxiPlate-384 Plus, Catalog no. 6008280).
The TR-FRET signal was measured in the presence both of the bio-H3K4me3 peptide and FLAG-JARID1B by detecting any H3K4me2/1 peptide produced in the assay system. Assays using only the bio-H3K4me2 peptide were served as a positive control. Robust enzymatic progressions were observed by using JARID1B at concentrations ranging from 10 to 30 nM. In a typical TR-FRET experiment, JARID1B was pre-incubated with or without 20 uM, 1 uM, or 0.1 uM of test-compounds (containing 1% DMSO final) for […]. The enzymatic reactions were initiated by the addition of 500 nM biotinylated H3K4me3 peptide substrate plus 500 uM of 2-OG, 25 uM Fe(II) and 2 mM ascorbate. The reaction buffer also contained 50 mM Hepes (pH7.5), 0.01% (v/v) Tween 20, and 50 mM NaCl. The reaction mixture was incubated for […] at room temperature before reading on an EnVision plate reader (PerkinElmer, Waltham, Mass.).

Row | Compound | inhibition at 0.1 µM
1 | O=c1[nH]c(COc2ccc(Br)cc2)nc2c(CNCC3CCN(Cc4ccccc4)CC3)nccc12 [Example 108, 8-((((1-benzylpiperidin-4-yl)methyl)amino)methyl)-2-((4-bromophenoxy)methyl)pyrido[3,4-d]pyrimidin-4(3H)-one] | > 50%
2 | O=c1[nH]c(COc2ccc(F)c(Cl)c2)nc2c(CNC[C@H]3CNCCO3)nccc12 [Example 190, (S)-2-((3-chloro-4-fluorophenoxy)methyl)-8-(((morpholin-2-ylmethyl)amino)methyl)pyrido[3,4-d]pyrimidin-4(3H)-one] | > 50%
3 | O=c1[nH]cnc2c(CNCC3CCCCC3)nccc12 [Example 85, 8-(((cyclohexylmethyl)amino)methyl)pyrido[3,4-d]pyrimidin-4(3H)-one] | < 20%
4 | CN1CCC(CNCc2nccc3c(=O)[nH]c(COCc4ccccc4Cl)nc23)CC1 [Example 210, 2-(((2-chlorobenzyl)oxy)methyl)-8-((((1-methylpiperidin-4-yl)methyl)amino)methyl)pyrido[3,4-d]pyrimidin-4(3H)-one] | > 50%
5 | CCN(CC)CCCCNCc1nccc2c(=O)[nH]cnc12 [Example 86, 8-(((4-(diethylamino)butyl)amino)methyl)pyrido[3,4-d]pyrimidin-4(3H)-one] | < 20%
6 | O=c1[nH]cnc2c(CNCC3CCNCC3)nccc12 [Example 93, 8-(((piperidin-4-ylmethyl)amino)methyl)pyrido[3,4-d]pyrimidin-4(3H)-one] | 20 to 50%
7 | O=C(NCCC1CCNCC1)c1cc(OCc2nc3cnccc3c(=O)[nH]2)ccc1Cl [Example 46, 2-chloro-5-((4-oxo-3,4-dihydropyrido[3,4-d]pyrimidin-2-yl)methoxy)-N-(2-(piperidin-4-yl)ethyl)benzamide] | 20 to 50%
8 | O=c1[nH]c(C2CCCO2)nc2c(CNCC3CCNCC3)nccc12 (stereo not drawn) [Example 193, 8-(((piperidin-4-ylmethyl)amino)methyl)-2-(tetrahydrofuran-2-yl)pyrido[3,4-d]pyrimidin-4(3H)-one] | < 20%
9 | O=c1[nH]c(COc2ccc(Cc3ccccc3)cc2)nc2c(CNCC3CCNCC3)nccc12 [Example 121, 2-((4-benzylphenoxy)methyl)-8-(((piperidin-4-ylmethyl)amino)methyl)pyrido[3,4-d]pyrimidin-4(3H)-one] | > 50%
10 | O=c1[nH]c(COc2ccc(Cc3ccccc3)cc2)nc2c(CNC[C@@H]3CCNC3)nccc12 [Example 151, (R)-2-((4-benzylphenoxy)methyl)-8-(((pyrrolidin-3-ylmethyl)amino)methyl)pyrido[3,4-d]pyrimidin-4(3H)-one] | 20 to 50%
11 | CCN1CCC[C@H]1CNCc1nccc2c(=O)[nH]c(COc3ccc(Cc4ccccc4)cc3)nc12 [Example 146, (S)-2-((4-benzylphenoxy)methyl)-8-((((1-ethylpyrrolidin-2-yl)methyl)amino)methyl)pyrido[3,4-d]pyrimidin-4(3H)-one] | 20 to 50%
12 | O=c1[nH]c(COc2ccc(F)c(Cl)c2)nc2c(CNC[C@H]3CCNC3)nccc12 [Example 158, (S)-2-((3-chloro-4-fluorophenoxy)methyl)-8-(((pyrrolidin-3-ylmethyl)amino)methyl)pyrido[3,4-d]pyrimidin-4(3H)-one] | > 50%
13 | O=c1[nH]c(COCc2cccc(Cl)c2)nc2c(CNCC3CCNCC3)nccc12 [Example 206, 2-(((3-chlorobenzyl)oxy)methyl)-8-(((piperidin-4-ylmethyl)amino)methyl)pyrido[3,4-d]pyrimidin-4(3H)-one] | > 50%
14 | O=c1[nH]c(COc2ccc(Cc3ccccc3)cc2)nc2c(CNCCCCN3CCCC3)nccc12 [Example 143, 2-((4-benzylphenoxy)methyl)-8-(((4-(pyrrolidin-1-yl)butyl)amino)methyl)pyrido[3,4-d]pyrimidin-4(3H)-one] | 20 to 50%
15 | O=c1[nH]c(COc2ccc(F)c(Cl)c2)nc2c(CNC[C@@H]3CNCCO3)nccc12 [Example 187, (R)-2-((3-chloro-4-fluorophenoxy)methyl)-8-(((morpholin-2-ylmethyl)amino)methyl)pyrido[3,4-d]pyrimidin-4(3H)-one] | > 50%
16 | CCN1CCC[C@@H]1CNCc1nccc2c(=O)[nH]c(COc3ccc(Cc4ccccc4)cc3)nc12 [Example 145, (R)-2-((4-benzylphenoxy)methyl)-8-((((1-ethylpyrrolidin-2-yl)methyl)amino)methyl)pyrido[3,4-d]pyrimidin-4(3H)-one] | 20 to 50%
17 | O=c1[nH]c(COc2cc(F)cc(F)c2)nc2c(CNCC3CCNCC3)nccc12 [Example 125, 2-((3,5-difluorophenoxy)methyl)-8-(((piperidin-4-ylmethyl)amino)methyl)pyrido[3,4-d]pyrimidin-4(3H)-one] | 20 to 50%
18 | CN1CCCC(CNCc2nccc3c(=O)[nH]cnc23)C1 (stereo not drawn) [Example 100, 8-((((1-methylpiperidin-3-yl)methyl)amino)methyl)pyrido[3,4-d]pyrimidin-4(3H)-one] | > 50%
19 | O=c1[nH]c(COc2cc(Cl)ccc2Cl)nc2c(CNCC3CCNCC3)nccc12 [Example 115, 2-((2,5-dichlorophenoxy)methyl)-8-(((piperidin-4-ylmethyl)amino)methyl)pyrido[3,4-d]pyrimidin-4(3H)-one] | 20 to 50%
20 | CC(c1ccccc1)c1ccc(OCc2nc3c(CNCC4CCNCC4)nccc3c(=O)[nH]2)cc1 (stereo not drawn) [Example 141, 2-((4-(1-phenylethyl)phenoxy)methyl)-8-(((piperidin-4-ylmethyl)amino)methyl)pyrido[3,4-d]pyrimidin-4(3H)-one] | 20 to 50%
21 | C[C@@H](Oc1ccc(F)c(Cl)c1)c1nc2c(CNCC3CCN(C)CC3)nccc2c(=O)[nH]1 [Example 218, (R)-2-(1-(3-chloro-4-fluorophenoxy)ethyl)-8-((((1-methylpiperidin-4-yl)methyl)amino)methyl)pyrido[3,4-d]pyrimidin-4(3H)-one] | 20 to 50%
22 | O=C(CNCc1nccc2c(=O)[nH]c(COc3ccc(F)c(Cl)c3)nc12)N1CCC(N2CCOCC2)C1 (stereo not drawn) [Example 235, 2-((3-chloro-4-fluorophenoxy)methyl)-8-(((2-(3-morpholinopyrrolidin-1-yl)-2-oxoethyl)amino)methyl)pyrido[3,4-d]pyrimidin-4(3H)-one] | 20 to 50%
23 | N[C@@H]1CCN(C(=O)CNCc2nccc3c(=O)[nH]c(COc4ccc(F)c(Cl)c4)nc23)C1 [Example 228, (R)-8-(((2-(3-aminopyrrolidin-1-yl)-2-oxoethyl)amino)methyl)-2-((3-chloro-4-fluorophenoxy)methyl)pyrido[3,4-d]pyrimidin-4(3H)-one] | > 50%
24 | O=c1[nH]c(COc2ccc(Cl)cc2)nc2c(CNCC3CCN(Cc4ccccc4)CC3)nccc12 [Example 107, 8-((((1-benzylpiperidin-4-yl)methyl)amino)methyl)-2-((4-chlorophenoxy)methyl)pyrido[3,4-d]pyrimidin-4(3H)-one] | > 50%
25 | O=c1[nH]c(COc2cccnc2)nc2c(CNCC3CCN(Cc4ccccc4)CC3)nccc12 [Example 109, 8-((((1-benzylpiperidin-4-yl)methyl)amino)methyl)-2-((pyridin-3-yloxy)methyl)pyrido[3,4-d]pyrimidin-4(3H)-one] | 20 to 50%
26 | O=C1c2cccnc2CN1CCCNCc1nccc2c(=O)[nH]c(COc3ccc(F)c(Cl)c3)nc12 [Example 185, 2-((3-chloro-4-fluorophenoxy)methyl)-8-(((3-(5-oxo-5,7-dihydro-6H-pyrrolo[3,4-b]pyridin-6-yl)propyl)amino)methyl)pyrido[3,4-d]pyrimidin-4(3H)-one] | 20 to 50%
27 | O=c1[nH]c(COc2ccc(C3CCCC3)cc2)nc2c(CNCC3CCNCC3)nccc12 [Example 140, 2-((4-cyclopentylphenoxy)methyl)-8-(((piperidin-4-ylmethyl)amino)methyl)pyrido[3,4-d]pyrimidin-4(3H)-one] | 20 to 50%
